Key:
[1] = target: α-glucosidase (Saccharomyces cerevisiae, UniProt P53341); assay type: biochemical
Experimental: (§1) Biological profile of all the candidates were obtained through experimental-based analysis, as described in the inhibitory assay (5.3 and 5.4). […]
5.4 α-glucosidase inhibitory assay protocol
10 µl of the α-glucosidase enzyme, 20 µl of test samples (10-50 µg/ml) and 50 µl, of 0.1M […]
nitrophenyl—D-g lucopy ranoside solution was fu rther added as a substrate and again incubated for 20 min at 37 °C. Sodium carbonate (50 µl of 0.1M) was added to terminate the reaction. P- […]
conditions by omitting test samples. All the experiments were carried out in triplicates. The percentage inhibition was calculated by the formula.
% Inhibition = [(Ac – As) /Ac] × 100 Ac-absorbance for control, As-absorbance for standard. […]
(§2) PDB format. The process was further carried out in auto dock in which polar hydrogen and Kollman and Gasteiger charges were add ed to protein. Selected ligand was also prepared done by using torsion tree to detect root. Moreover, configuration file was generated along with X, Y and Z axis save both ligand and protein in PDBQT format in the same docking folder. At the end

[2] = target: T1, α-amylase (Sus scrofa, UniProt P00690); experiment: In vitro α-amylase inhibitory assay; assay type: biochemical
T1 sequence (P00690 16-511): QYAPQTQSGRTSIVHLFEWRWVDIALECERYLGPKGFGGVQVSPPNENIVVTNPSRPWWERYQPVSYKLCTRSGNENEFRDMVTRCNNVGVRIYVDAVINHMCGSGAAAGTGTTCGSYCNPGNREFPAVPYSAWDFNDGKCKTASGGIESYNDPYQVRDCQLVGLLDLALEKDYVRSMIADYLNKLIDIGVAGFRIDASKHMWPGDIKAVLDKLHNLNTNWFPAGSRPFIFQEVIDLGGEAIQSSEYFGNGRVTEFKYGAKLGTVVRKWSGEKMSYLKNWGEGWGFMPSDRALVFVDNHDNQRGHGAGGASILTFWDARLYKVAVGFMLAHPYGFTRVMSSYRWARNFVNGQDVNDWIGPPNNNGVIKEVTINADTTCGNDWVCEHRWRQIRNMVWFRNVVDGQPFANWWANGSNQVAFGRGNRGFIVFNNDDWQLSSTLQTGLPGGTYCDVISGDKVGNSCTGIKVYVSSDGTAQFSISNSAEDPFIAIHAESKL
Experimental: as §1
absorbance was recorded using an ELISA microplate reader at 540 nm. […]
the standard. All the reactions were carried out in triplicates. The reaction mixture, devoid of the test sample, served as control. […]
as §2

Chain of α-glucosidase (P53341 whole entry): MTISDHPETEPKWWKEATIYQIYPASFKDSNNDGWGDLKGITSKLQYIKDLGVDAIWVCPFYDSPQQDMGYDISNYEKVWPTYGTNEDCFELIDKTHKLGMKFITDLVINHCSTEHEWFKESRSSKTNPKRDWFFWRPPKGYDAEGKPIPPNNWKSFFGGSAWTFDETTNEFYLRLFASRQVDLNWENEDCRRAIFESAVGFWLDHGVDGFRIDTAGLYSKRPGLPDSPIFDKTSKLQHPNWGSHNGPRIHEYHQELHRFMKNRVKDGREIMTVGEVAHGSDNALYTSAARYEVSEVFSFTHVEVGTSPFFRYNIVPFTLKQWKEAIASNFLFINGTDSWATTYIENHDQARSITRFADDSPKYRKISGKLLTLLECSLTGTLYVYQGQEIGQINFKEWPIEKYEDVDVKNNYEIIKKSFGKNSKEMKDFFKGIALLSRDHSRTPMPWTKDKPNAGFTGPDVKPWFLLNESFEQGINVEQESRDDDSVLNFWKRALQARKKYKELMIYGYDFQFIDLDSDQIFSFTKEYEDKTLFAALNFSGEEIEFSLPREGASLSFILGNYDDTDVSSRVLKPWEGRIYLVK

| Compound | melting point [°C] | IC50 [1] [µM] | IC50 [2] [µM] |
| --- | --- | --- | --- |
| O=C1N/C(=N/c2nccs2)S/C1=C\c1ccc2ncsc2c1-c1cccc([N+](=O)[O-])c1Cl [Compound 9, (2Z,5Z)-5-((7-(2-chloro-3-nitrophenyl)benzo[d]thiazol-6-yl)methylene)-2-(thiazol-2-ylimino)thiazolidin-4-one] | 241 to 242 | – | – |
| (2Z,5Z)-5-((5-nitrobenzo [d]thiazol-6-yl) methylene)-2-(thiazol-2-ylimino)thiazolidin-4-one [Compound 1] | – | 8.8 ± 0.2 | 7.7 ± 0.2 |
| (2Z,5Z)-5-((7-hydroxy-4-(trifluoromethyl)benzo[d]thiazol-6-yl)methylene)-2-(thiazol-2-ylimino)thiazolidin-4-one [Compound 6] | – | 3.2 ± 0.7 | 2.1 ± 0.7 |

The next lines start with results.

| melting point [°C] | Compound | IC50 [1] [µM] | IC50 [2] [µM] |
| --- | --- | --- | --- |
| 227 to 228 | CN(C)c1cc(/C=C2\S/C(=N\c3nccs3)NC2=O)cc2scnc12 [Compound 10, (2Z,5Z)-5-((4-(dimethylamino)benzo[d]thiazol-6-yl)methylene)-2-(thiazol-2-ylimino)thiazolidin-4-one] | – | – |
| 243 to 244 | N#Cc1cccc(-c2c(/C=C3\S/C(=N\c4nccs4)NC3=O)ccc3ncsc23)c1 [Compound 15, 3-(6-((Z)-((Z)-4-oxo-2-(thiazol-2-ylimino)thiazolidin-5-ylidene)methyl)benzo[d]thiazol-7-yl)benzonitrile] | – | – |

Source: paper PMC9610606, “Design, Synthesis, In Silico Testing, and In Vitro Evaluation of Thiazolidinone-Based Benzothiazole Derivatives as Inhibitors of α-Amylase and α-Glucosidase” (Pharmaceuticals, 2022)
